The text below walks through data of patent US20210379049A1, “PPAR-gamma AGONIST FOR TREATMENT OF BLOOD CANCERS” (Coherus Biosciences, Inc, priority 2016, published 2021).

Series [1] concerns adiponectin. Nature of the series: 24-week randomized, double-blind, placebo-controlled study: serum adiponectin levels in subjects with type 2 diabetes. The series is classed as in vivo, human. The note with it: for Mean Adiponectin Week 24 / Mean Adiponectin Week 0: type 2 diabetes subjects; for Mean Adiponectin Week 0: baseline (Week 0). As for the experimental part:
A randomized, double-blind, placebo-controlled, 24-week study was conducted in which adiponectin levels were measured. […] 367 subjects with type 2 diabetes (TD2)—a disease in which patient adiponectin levels are reduced-were randomly assigned to receive either 0.5, 1, 2 or 3 milligrams (“mg”) of INT131 besylate, 45 mg of pioglitazone or placebo daily for 24 weeks. To measure adiponectin levels blood was drawn at Weeks 0, 2, 6, 12 and 24.
At baseline (Week 0) mean adiponectin levels were 1.94 micrograms per milliliter (“μg/mL”). The mean adiponectin levels at baseline and Week 24, and the mean change in adiponectin levels from baseline (Week 0) to Week 24 are disclosed in Table 1, below. The standard deviation for samples tested in each group is listed in (parenthesis). Mean baseline adiponectin values were similar for the treatment groups.

For series [2], the system named is adiponectin. Nature of the series: 14-day study: serum adiponectin levels in healthy subjects. Type of series: in vivo, human. The settings on record: 0.1 mg INT131 daily for 14 days. As for the experimental part:
A study was conducted to determine the effect of INT131 on serum adiponectin levels. Thirty healthy subjects were randomly selected to receive either placebo, 0.1 mg INT131, 1 mg INT131 or 4 mg INT131 daily for 14 days. To measure adiponectin levels blood was drawn at Days 1, 4, 8 and 14.

The conditions of series [3]: subjects taking INT131 vs those taking pioglitazone; DePaoli et al. 2014; cited from earlier work.

Molecules are shown by their SMILES.

Regarding `CCc1ccc(CCOc2ccc(CC3SC(=O)NC3=O)cc2)nc1` (centres unmarked) [Pioglitazone, pioglitazone, reference compound], the “Mean Adiponectin Week 24” value in the series with adiponectin [1] (Week 24, 45 mg pioglitazone daily) was 5.28 µg/mL. In addition, in the series with adiponectin [1] (45 mg pioglitazone daily group), the “Mean Adiponectin Week 0” value was determined as 2.32 µg/mL.
On to `O=S(=O)(Nc1cc(Cl)c(Oc2cnc3ccccc3c2)c(Cl)c1)c1ccc(Cl)cc1Cl` [INT131], for which the “change in serum adiponectin levels from Day 1 to Day 14 and over placebo” value in the series on adiponectin [2] is “no significant change”. In series [3], the “edema, weight gain and hemodilution versus pioglitazone” value is “less edema, weight gain, and hemodilution”. Also, in the series with adiponectin [1] (0.5 mg, 1 mg and 3 mg doses of INT131 vs pioglitazone 45 mg, p≤0.0408), the “treatment comparison of adiponectin levels with pioglitazone 45 mg” value is “statistically significant”. Moreover, the “treatment comparison of adiponectin levels with placebo” value in the series on adiponectin [1] (1 mg, 2 mg and 3 mg doses of INT131 vs placebo, p≤0.0109) is recorded as “statistically significant”. Moreover, the “Mean Adiponectin Week 24” value in the series with adiponectin [1] (Week 24, 0.5 mg INT131 daily) was 2.28 µg/mL; with adiponectin [1] (Week 24, 1 mg INT131 daily), 3.15 µg/mL; in the series with adiponectin [1] (Week 24, 2 mg INT131 daily) it was 5.14 µg/mL; with adiponectin [1] (Week 24, 3 mg INT131 daily), 5.83 µg/mL. Besides, the “Mean Adiponectin Week 0” value with adiponectin [1] (0.5 mg INT131 daily group) amounted to 1.73 µg/mL; with adiponectin [1] (1 mg INT131 daily group), 1.87 µg/mL; in the series on adiponectin [1] (2 mg INT131 daily group), 1.87 µg/mL; in the series with adiponectin [1] (3 mg INT131 daily group) it was 2.00 µg/mL.
